The results in this text go back to patent US12576059B2, “Methods and compositions for treatment of inflammatory disease” (priority 2021, dated 2026).

The subject of data set [1] is LPS induced acute lung inflammation. Briefly: Example 2: LPS induced inflammation, H-AA versus D-AA, male and female mice. It is filed as in vivo. As to conditions: for Interalveolar space / Interalveolar surface area: 6-week course, then single intranasal LPS; for inflammation in the lungs (in words): male and female mice, after LPS. On the procedure:
LPS administration was conducted as per Example 1 above except that four groups of mice were used. The first two groups (1 and 2) were control mice (male and female). The next two groups (3 and 4) of mice received a 6-week course of H-AA (male and female). Finally, the last two groups (5 and 6) of mice received a 6-week course of D6-AA (second group). Groups 3, 4, 5 and 6 then received a single intranasal administration of LPS to induce acute lung inflammation. The degree of the inflammatory response was determined per Example 1. Next, the height and distance of the interalveolar septa was determined to provide for the surface area of the inflammation.

For another data set, the system named is healthy mice. As to conditions: mouse, in vivo. The procedure: Mouse diet was from Research Diets (New Brunswick, NJ) based on fat-free AIN-93G. Fat was added at 11.3% by weight total fat and 0.25% either normal H-AA or D-AA respectively (Table 5).
Male and Female BALB/c and C57BL/6 mice were provided with standard environmental conditions i.e., 22±1° C., 55±5% humidity and 12 h light/dark cycle with free food and water access. At the age of six weeks, animals were split into 8 groups (n=160 total, 20 of each gender) and were continuously fed ad libitum on the diet containing either H-AA or D-AA for 2, 4, 6 or 8 weeks at the daily rate of ca. 5 g of diet per mouse for the duration of the study. The other two groups of animals (n=40, 20 of each gender) received neither PUFA-enriched diets nor LPS served as controls. The body weight and food intake were measured once a week. After completing the appropriate diet course, half of the mice in each group (10 females and 10 males) (i) underwent the procedure of bronchoalveolar lavage (BAL) to accomplish cytological smears, (ii) were subjected to tissue harvesting and collection of colon contents (after humane euthanasia with lethal dose of sodium thiopental, 100 mg/kg intravenously). On the ninth week of this diet course, the other half of the group was administered 1 mg/kg of intranasal (IN) LPS from Escherichia coli O111:B4 (Sigma Aldrich) 24 hours prior to BAL and subsequent euthanasia. 40 D-AA fed animals (20 males, 20 females) were switched to the H-AA diet for washout experiments. […]
Lung, stomach and colon samples were fixed with 4% formaldehyde (freshly prepared from paraformaldehyde), paraffin embedded and cut into 2-4 μm sections. For routine histology, all fixed tissue sections were stained with hematoxylin-eosin (H&E). All slides were evaluated at 10 fields each using a Genetic Pro Bino light microscope (A) and photographed with a digital camera (Delta Optical). Stomach and colon tissue sections were analyzed for signs of active and chronic inflammation, formation of lymph follicles, and hyperplasia of epithelial cells. The severity of lung injury was scored according to lung pathological changes, including interalveolar and perivascular hemorrhages, peri-vascular and peribronchial infiltration, perivascular edema, thickness of alveolar wall, alveolar space value, and emphysematous transformations. Lung tissue samples were additionally stained with commercially available Martius Scarlet Blue (MSB) stain kit (Avantik, USA) for fibrin visualization. The presence of homogeneous fibrin masses of yellow, pink or red color in the lung blood vessels were interpreted as thrombotic masses. […]
Cell free BAL fluid supernatants as well as colon tissue samples were analyzed using commercially available Mouse IL-1B ELISA Kit (R&D systems, Lot P265854, USA) and the Biotek ELx-808 microplate reader (Biotek, USA) according to the instructions recommended by the manufacturer).

On the set-up of data set [2]: species or system mice. The following applies: in vivo. The procedure: Male and Female BALB/c and C57BL/6 mice were provided with standard environmental conditions i.e., 22±1° C., 55±5% humidity and 12 h light/dark cycle with free food and water access. At the age of six weeks, animals were split into 8 groups (n=160 total, 20 of each gender) and were continuously fed ad libitum on the diet containing either H-AA or D-AA for 2, 4, 6 or 8 weeks at the daily rate of ca. 5 g of diet per mouse for the duration of the study. The other two groups of animals (n=40, 20 of each gender) received neither PUFA-enriched diets nor LPS served as controls. The body weight and food intake were measured once a week. […]
The relative ratio of H-AA to D-AA was determined by gas chromatography (GC) coupled to chemical ionization mass spectrometry. […]
As the first step to test this hypothesis, we studied the metabolic effect of such a dietary supplementation. We determined the actual content of D-AA and then performed a washout experiment after a long period of supplementation by switching from D-AA to H-AA diet by MS analysis of several mouse tissues in the AA-diet fed mice. […]

Regarding `[2H]C([2H])(/C=C\CCCCC)/C=C\C([2H])([2H])/C=C\C([2H])([2H])/C=C\CCCC(=O)O` [D-AA, 7,7,10,10,13,13-D6-arachidonic acid], in data set [1] (female mice), the Interalveolar space is on record as ~3.5 μm and the Interalveolar surface area is ~90 μm^2. Further, the “inflammation in the lungs (in words)” value in data set [1] is given as “statistically significant reduction in inflammation”. Also, the “inflammation in the lungs (in words)” value in data set [1] (listed as D-6 AA) was “less inflammation in the lungs”. For the same molecule, in data set [1] (male mice), the Interalveolar space is ~5.0 μm and the Interalveolar surface area is on record as ~190 μm^2. For the same molecule, in the data set with healthy mice, the alveolar spaces entry is listed as “No relevant changes”; the “average thickness of interalveolar septa, H-AA versus D-AA” value is on record as “did not significantly differ”; the tolerability result is listed as “well tolerated without apparent adverse reactions”. In addition, in data set [2] (both, BALB/c and C57BL/6, mouse, 12 weeks), the “incorporation of the deuterated form” value is reported as “more than 60%”. The “washout with H-AA feeding” value in data set [2] (mouse) is listed as “more rapid than brain”.
